Data set [1] has as its target Isoenzym Carboanhydrase II (Homo sapiens, UniProt P00918). In words: Inhibition constant for carbonic anhydrase II. To be noted: Isoenzym Carboanhydrase II expressed in osteoclasts; read-out: Inhibitorkonstante KI. The class given is biochemical.
Data set [2] deals with Nierenzellen. Briefly: Uptake into kidney cells, DNSA fluorescence displacement (Abb. 2). To be noted: Nierenzellen with Carboanhydrase II.
Source text: Das Maximum der Anregung der Fluoreszenz liegt bei einer Wellenlänge von 320 nm, das Maximum der Emission bei 470 nm. Diese Fluoreszenz läßt sich gut von der des ungebundenen DNSA unterscheiden, da diese grün und sehr viel schwächer ist. Sie hat ihr Emissionsmaximum bei 580 nm. Die Carboanhydrase bindet DNSA im stöchiometrischen Verhältnis 1:1.
Data set [3] concerns Knochenresooorption. In words: Ovariectomised rats, osteoporosis model. The class given is in vivo, Ratten. To be noted: several months.
The test system of data set [4] is Erythrozyten. The class given is cell-based. The note with it: not told.
Data set [5] concerns Osteoklasten. Briefly: Bone resorption by osteoclasts settled on dentine slices (cell culture). The class given is cell-based.
Data set [6] relates to Knochenresorption. In words: Serum calcium after injection of parathormone in rats. The class given is in vivo, Ratten. To be noted: three days after a single dose of 10 mg/kg, Abb. 5. The source says:
Die Hemmung der Knochenresorption in Ratten, die mit 1 behandelt wurden, kann an der Änderung der Calciumkonzentration im Serum nach Injektion von Parathormon demonstriert werden (Abb. 5).

In data set [7] the test system is Knochenresorption. Briefly: Strontium excretion and tibia mineral content in strontium-loaded growing rats. The class given is in vivo, Ratten. The procedure: Wachsenden Ratten - 6 Wochen alt - wurden sechsmal in Abständen von drei Tagen jeweils 2 mg SrCl2 in physiologischer Kochsalzlösung subkutan injiziert. Die Tiere bauen das Strontium analog dem Calcium in den Knochen ein. Entsprechend der Rate des Knochenumbaus wird das Strontium über Harn und Fäces während eines längeren Zeitraums wieder ausgeschieden. Nach einer 14 tägigen Latenzzeit in der sie eine calciumarme Diät erhielten, wurden ihnen verschiedene Konzentrationen von 1 i.p. apliziert und die Ausscheidung des Strontiums atomabsorptionsspektroskopisch gemessen. Die Abb.
Nach Abschluß des Versuches wurden die Tibiae präpariert und deren Gehalt an Calcium, Strontium und Phosphat bestimmt.

Data set [8] has as its system Osteoklasten. To be noted: not told.
The target in data set [9] is Carboanhydrase II (Homo sapiens, UniProt P00918). The note with it: fluorescent DNSA-Carboanhydrase II complex, 1:1; read-out: Dissoziationskonstante KD; cited from earlier work.

The values that follow come from patent EP1089763B1, “AGENTS FOR SPECIFICALLY INHIBITING OSTEOCLASTIC BONE RESORPTION” (Dietsch, Peter, priority 1998, dated 1999).

As to `NS(=O)(=O)c1ccc(CNC(=S)Nc2ccc(OC3OC(CO)C(O)C(O)C3O)cc2)cc1` [compound 1, N-α-D-Mannopyranosylphenyl-N'-p-amidosulfonylbenzylthioharnstoff], the inhibition constant (Ki) in [1] is 800 nM. In addition, the uptake into cells entry in data set [2] is reported as “nicht aufgenommen”. Further, in [3], the “Hemmwirkung auf die Knochenresooorption” value was “Hemmwirkung” and the Nebenwirkungen entry is “keine Nebenwirkungen”. The “permeability of the cell membrane” value in data set [4] is recorded as “teilweise für 1 durchlässig”. Further, the resorption result in [5] (in the presence of osteoclast-activating hormones) was “keine Resorption mehr”. Besides, the resorption result in data set [5] (osteoclasts on Dentinplättchen) was “hören sie auf zu resorbieren”. Moreover, the “knochenauflösende Wirkung von Parathormon (Calciumkonzentration im Serum)” value in data set [6] was “vollständig blockiert”. Further, in [7] (rats, various concentrations i.p., after SrCl2 loading and low-calcium diet, Abb. 3), the Strontiumausscheidung result is given as “Erniedrigung der Strontiumausscheidung”. Also, in data set [7] (versus control group, at the end of the experiment, Abb. 4), the “Gehalt an Calcium, Strontium und Phosphat (Tibiae)” value was “deutlich höhere Konzentration”.

For `CCOc1ccc2nc(S(N)(=O)=O)sc2c1` [Ethoxzolamid, 6-Ethoxybenzothiaziol-2-sulfonamid, reference compound], in data set [2], the uptake into cells entry is given as “aufgenommen”.

On to `CN(C)c1cccc2c(S(N)(=O)=O)cccc12` [DNSA], for which, in data set [8], the membrane permeability result is reported as “kann Zellmembranen passieren”. The Kd in data set [9] is 240 nM.
